Results reported in ChEMBL document CHEMBL3044560, “Microwave-assisted synthesis and antimicrobial activity of some imidazo[2,1-b][1,3,4]thiadiazole derivatives” (2012).
Active and inactive are the calls of the source. No cut-off for these calls is given here.

Experiments:
Staphylococcus aureus [1] = test: Antimicrobial activity against Staphylococcus aureus at 75 ug/ml after 24 hr by cup-plate method; format: functional
Candida albicans [2] = test: Antimicrobial activity against Candida albicans at 50 ug/ml after 72 hr by cup-plate method; format: functional; details: read-out: IZ
Klebsiella [3] = test: Antimicrobial activity against Klebsiella at 50 ug/ml after 24 hr by cup-plate method; format: functional
Staphylococcus aureus [4] = test: Antimicrobial activity against Staphylococcus aureus at 10 ug/ml after 24 hr by cup-plate method; details: read-out: IZ
Klebsiella [5] = test: Antimicrobial activity against Klebsiella at 10 ug/ml after 24 hr by cup-plate method; format: functional; details: read-out: IZ
Candida albicans [6] = test: Antimicrobial activity against Candida albicans at 30 ug/ml after 72 hr by cup-plate method; format: functional; details: read-out: IZ
Candida albicans [7] = test: Antimicrobial activity against Candida albicans at 50 to 70 ug/ml after 72 hr by cup-plate method; format: functional, organism-based
Candida albicans [8] = test: Antimicrobial activity against Candida albicans at 5 ug/ml after 72 hr by cup-plate method; format: functional; details: read-out: IZ

## O=[N+]([O-])c1ccc(Cc2nn3cc(-c4ccc(F)cc4)nc3s2)cc1
Staphylococcus aureus [1]
  inhibition zone (IZ): inactive
Candida albicans [2]
  zone of inhibition at 50 µg/mL: 22 mm
Klebsiella [3]
  inhibition zone (IZ): inactive

## O=C(O)c1cn(C2CC2)c2cc(N3CCNCC3)c(F)cc2c1=O [CIPROFLOXACIN]
Staphylococcus aureus [4]
  zone of inhibition at 10 µg/mL: 28 mm
Klebsiella [5]
  zone of inhibition at 10 µg/mL: 28 mm

## OC(Cn1cncn1)(Cn1cncn1)c1ccc(F)cc1F [FLUCONAZOLE]
Candida albicans [6]
  zone of inhibition at 30 µg/mL: 22 mm

## O=[N+]([O-])c1ccc(Cc2nn3cc(-c4ccc(Br)cc4)nc3s2)cc1
Staphylococcus aureus [1]
  inhibition zone (IZ): inactive
Candida albicans [7]
  inhibition zone (IZ): inactive
Candida albicans [8]
  zone of inhibition at 5 µg/mL: 14 mm
